These results are taken from US20100069494A1, “LOWERING OF PROTEINS ASSOCIATED WITH ALZHEIMER'S DISEASE BY INTERRUPTING GENE TRANSCRIPTION WITH A SMALL MOLECULE” (BOARD OF GOVERNORS FOR HIGHER EDUCATION, STATE OF RHODE …, priority 2007, published 2010).

In one assay the test system is APP. Briefly: Oral tolfenamic acid in mice, Western blot analysis of APP in brain. Type of assay: in vivo, mice (C57BL/6). The note with it: oral gavage 10 or 50 mg/Kg in corn oil on alternate days, ratio to housekeeping gene, both doses combined (FIG. 6B). How it is done: The Oral Administration of Tolfenamic acid to mice lowers SP1, APP, and Aβ levels in the brain (See FIG. 6). Mice were dosed on alternate days by oral gavage with 10 or 50 mg/Kg of tolfenamic acid in corn oil or vehicle alone. Tolfenamic acid (TFA) lowered APP levels by about 50% and Aβ by about 20%. […] FIG. 6A is a representative Western blot of SP1. FIG. 6B is a Western blot analysis of APP expressed as a ratio of a housekeeping gene, FIG. 6C is Aβ analysis by ELISA. Each bar represents the mean of data obtained from 6-9 animals. Data from both doses was combined after statistical analysis. Values marked with an ‘*’ are statistically significant, p<0.0.5. Animal Exposure: Adult mice (C57BL/6) were obtained from Jackson labs (Maine). They were divided into 2 groups viz., Con (C), drug treated (D). The drug, toelfenamic acid was dissolved in corn oil and administered at various concentrations from 10 mg/Kg to 100 mg/Kg in corn oil by oral gavage. Control mice were dosed with corn oil only. Treatment was given on alternate days for one month. At the end of the exposure period the animals were decapitated following exposure to CO2 and hypothermia and various brain regions were isolated and stored at −70° C. This protocol has been approved by the IACUC of the University of Rhode Island. […]
In general terms: A western blot detects proteins with antibodies after separation by electrophoresis.

The subject of a further assay is Aβ. Description: Oral tolfenamic acid in mice, Aβ analysis by ELISA in brain. It counts as in vivo, mice (C57BL/6). The note with it: oral gavage 10 or 50 mg/Kg in corn oil on alternate days, both doses combined (FIG. 6C). How it is done: The Oral Administration of Tolfenamic acid to mice lowers SP1, APP, and Aβ levels in the brain (See FIG. 6). Mice were dosed on alternate days by oral gavage with 10 or 50 mg/Kg of tolfenamic acid in corn oil or vehicle alone. Tolfenamic acid (TFA) lowered APP levels by about 50% and Aβ by about 20%. […] FIG. 6A is a representative Western blot of SP1. FIG. 6B is a Western blot analysis of APP expressed as a ratio of a housekeeping gene, FIG. 6C is Aβ analysis by ELISA. Each bar represents the mean of data obtained from 6-9 animals. Data from both doses was combined after statistical analysis. Values marked with an ‘*’ are statistically significant, p<0.0.5. Animal Exposure: Adult mice (C57BL/6) were obtained from Jackson labs (Maine). They were divided into 2 groups viz., Con (C), drug treated (D). The drug, toelfenamic acid was dissolved in corn oil and administered at various concentrations from 10 mg/Kg to 100 mg/Kg in corn oil by oral gavage. Control mice were dosed with corn oil only. Treatment was given on alternate days for one month. […] ELISA Assays: Aβ-40 and Aβ-42 levels were measured using a combination of monoclonal antibody (mAb) 6E10 (specific to an epitope present on 1-16 amino acid residues of Aβ) and R162, and R164 respectively in a double-antibody sandwich ELISA (Mehta et al., 1998; Morishima-Kawashima et al., 2000; Basha et al., 2005).

The next assay has as its system Sp1, Sp3 and Sp4. The note with it: pancreatic cancer cells and tumors; background statement; cited from earlier work.
The target in the next assay is T1, SP1 (Mus musculus, UniProt O89090).
T1 construct: various brain regions were isolated and stored at −70° C; from tissue; host or cells: brain of adult C57BL/6 mice
Description: Oral tolfenamic acid in mice, Western blot of SP1 in brain. It counts as in vivo, mice (C57BL/6). The note with it: oral gavage 10 or 50 mg/Kg in corn oil on alternate days, Western blot (FIG. 6A). The procedure:
The Oral Administration of Tolfenamic acid to mice lowers SP1, APP, and Aβ levels in the brain (See FIG. 6). Mice were dosed on alternate days by oral gavage with 10 or 50 mg/Kg of tolfenamic acid in corn oil or vehicle alone. Tolfenamic acid (TFA) lowered APP levels by about 50% and Aβ by about 20%. […] FIG. 6A is a representative Western blot of SP1. FIG. 6B is a Western blot analysis of APP expressed as a ratio of a housekeeping gene, FIG. 6C is Aβ analysis by ELISA. Each bar represents the mean of data obtained from 6-9 animals. Data from both doses was combined after statistical analysis. Values marked with an ‘*’ are statistically significant, p<0.0.5.
Animal Exposure: Adult mice (C57BL/6) were obtained from Jackson labs (Maine). They were divided into 2 groups viz., Con (C), drug treated (D). The drug, toelfenamic acid was dissolved in corn oil and administered at various concentrations from 10 mg/Kg to 100 mg/Kg in corn oil by oral gavage. Control mice were dosed with corn oil only. Treatment was given on alternate days for one month. At the end of the exposure period the animals were decapitated following exposure to CO2 and hypothermia and various brain regions were isolated and stored at −70° C. This protocol has been approved by the IACUC of the University of Rhode Island. […]

T1 sequence (O89090 whole entry): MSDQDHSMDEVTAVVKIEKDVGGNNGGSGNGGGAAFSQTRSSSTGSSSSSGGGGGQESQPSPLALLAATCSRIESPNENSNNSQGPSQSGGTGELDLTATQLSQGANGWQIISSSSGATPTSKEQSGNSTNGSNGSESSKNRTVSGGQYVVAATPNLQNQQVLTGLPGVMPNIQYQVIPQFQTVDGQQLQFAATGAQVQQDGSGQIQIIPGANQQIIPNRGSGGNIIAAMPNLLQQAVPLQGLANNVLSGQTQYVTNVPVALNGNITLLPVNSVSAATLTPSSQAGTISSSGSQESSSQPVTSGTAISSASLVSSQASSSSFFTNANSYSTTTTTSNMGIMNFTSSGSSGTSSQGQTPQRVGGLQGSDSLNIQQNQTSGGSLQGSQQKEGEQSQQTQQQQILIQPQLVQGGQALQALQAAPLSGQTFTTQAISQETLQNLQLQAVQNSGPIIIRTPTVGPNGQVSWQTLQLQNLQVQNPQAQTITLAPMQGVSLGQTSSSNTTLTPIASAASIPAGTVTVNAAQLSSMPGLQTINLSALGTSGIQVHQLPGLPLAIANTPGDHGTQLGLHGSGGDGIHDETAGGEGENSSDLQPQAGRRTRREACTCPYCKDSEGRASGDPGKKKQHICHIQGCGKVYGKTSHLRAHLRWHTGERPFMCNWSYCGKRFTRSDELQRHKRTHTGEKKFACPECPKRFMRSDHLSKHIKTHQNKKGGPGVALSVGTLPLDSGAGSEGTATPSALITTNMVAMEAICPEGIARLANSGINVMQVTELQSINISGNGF

For the compound `Cc1c(Cl)cccc1Nc1ccccc1C(=O)O` [Tolfenamic acid], in the assay on APP, the “lowering of APP levels” value is “about 50%”. In the assay with Aβ, the “lowering of Aβ levels” value is “about 20%”. Further, the “degradation of Sp1, Sp3 and Sp4” value in the assay on Sp1, Sp3 and Sp4 is “can induce proteasome-dependent degradation of Sp1, Sp3 and Sp4”. Further, the “SP1 levels in the brain” value on SP1 is listed as “lowers”.
